Experimental data published in article PMC10251509, “Ultrafast Fragment Screening Using Photo-Hyperpolarized (CIDNP) NMR” (Journal of the American Chemical Society, 2023).
Where a SMILES comes first, the peptide text is derived from it.

Molecular target: T1, PDZ2 domain of human tyrosine phosphatase 1E (hPTP1E) (Homo sapiens, UniProt Q12923)
T1 construct: the PDZ2 domain of human tyrosine phosphatase 1E (hPTP1E); polyhistidine (N); made in house; host or cells: Escherichia coli BL21 (DE3)
T1 sequence (Q12923 1368-1452 limits assumed): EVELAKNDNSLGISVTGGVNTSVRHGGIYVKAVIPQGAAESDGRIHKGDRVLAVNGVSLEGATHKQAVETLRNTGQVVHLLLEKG
Test: [15N,1H]-HSQC chemical shift perturbation / titration of peptides with PDZ2 domain
Type: binding
Conditions: [15N,1H]-HSQC-based titration series, calculated by Titan
Source text: To establish a proof of concept, we decided to design and study peptides that bind to the PDZ2 domain of human tyrosine phosphatase comprising a tryptophane at the N-terminus of the peptides for detection by photo-CIDNP since tryptophane is known to be well polarized in the presence of fluorescein.[10],[25] The positive and negative control peptides (i.e., WVSAV and WEKLQT, respectively) were then checked in their binding capacity using [^15N,^1H]-HSQC experiments (Figure 2A,C).
Figure 2 Peptide binding studies of peptides to the PDZ2 domain of the human tyrosine phosphatase by standard chemical shift perturbation 2D NMR experiments and photo-CIDNP 1D ^1H NMR. (A) and (C) 2D [^15N,^1H]-HSQC spectra of the ^15N-labeled PDZ2 domain in the absence (black) and presence (green) of the peptide WVSAV (A) or WEKLQT (C), the experiments were recorded each within ca. 30 min. Photo-CIDNP ^1H 1D NMR spectra of the tryptophane aromatic resonances of (B) WVSAV and (D) WEKLQT in the absence (black lines) and presence (green lines) of the PDZ2 domain of the human tyrosine phosphatase, the experiments were recorded each within ca. 5 s. All of the 1D NMR spectra are single-scan experiments and were recorded with 100 μM peptide, ±100 μM PDZ2 domain at 298 K. The hyperpolarization was triggered by 4 s of light irradiation (450 nm, 1 W) in the presence of 25 μM fluorescein in photo-CIDNP buffer. […]

Kd: 111 ± 3.3 µM
Compound: CC(C)[C@H](NC(=O)[C@H](C)NC(=O)[C@H](CO)NC(=O)[C@@H](NC(=O)[C@@H](N)Cc1c[nH]c2ccccc12)C(C)C)C(=O)O [WVSAV] (H-WVSAV-OH)
